Assay results taken from publication PMC7117798 (Nature immunology, 2020).
“Also recorded” adds a separate entry of the source. One block for each molecule: values may come before it.

Columns and labels:
[1] = system: CD4^+ T cell hybridomas with C3g7 APCs; experiment: Antigen presentation assay; assay type: cell-based, mouse; settings: for response of InsB:11–25-reactive CD4^+ T cell hybridoma clone 58: Extended Data Fig. 3
[2] = system: I-A^g7; experiment: Competitive binding assay; design: species or system mouse; settings: n = 2 independent experiments
[3] = system: CD4^+ T cells from islets and pLN; assay type: cell-based; settings: 8–10-week old female NOD mice; challenge with Ins1C:51–61 or Ins1C:51–61E and recall; compared with native Ins1C:51–61 or Ins1C:33–61; Fig. 3g
[4] = C3g7 APCs pulsed with epitope, Fig. 2c

Molecule: CCN(CC)CCCC(C)Nc1ccnc2cc(Cl)ccc12 (centres unmarked) [chloroquine, reference compound]
effect on presentation of Ins1C:33–61 to a cognate CD4^+ T cell hybridoma ([1]; C3g7 APCs treated with 100 μM chloroquine at 37°C for 2 h in the presence of antigen, Extended Data Fig. 1d): did not affect the presentation

Molecule: EALYLVCGE [InsB:13–21]
response of InsB:11–25-reactive CD4^+ T cell hybridoma clone 58 [1, 4]: did not recognize; also recorded: unreactive

fold higher binding affinity to I-A^g7 than Ins1C:51–61 ([2]; competitive binding assay, Fig. 3e): ~ 3 fold
Molecule: LQTLALEVARE [Ins1C:51–61E]
IL-2 and IFN-γ production by islet/pLN CD4^+ T cells [3]: substantially stronger responses

Molecule: LYLVCGERG [InsB:15–23]
response of InsB:11–25-reactive CD4^+ T cell hybridoma clone 58 [1, 4]: responded

relative binding strength to I-A^g7 (in words) ([2]; competitive binding assay on C3g7 cells): bound poorly
Molecule: TLALEVARE [Ins1C:53–61E]

Molecule: VEALYLVCG [InsB:12–20]
response of InsB:11–25-reactive CD4^+ T cell hybridoma clone 21 [1, 4]: cross-reacted
response of InsB:11–25-reactive CD4^+ T cell hybridoma clone 58 [1, 4]: did not recognize; also recorded: unreactive
